# US10369183B2, “Therapeutic compositions from jamaican bitter yam and methods of making and using same” (University of The West Indies, priority 2008, dated 2019)
# Marks after values point to notes of the source that are not given here.
# Experiments:
# Assay type in all cases: in vivo, Wistar rats
# Ca^2+ ATPase = test: Intestinal Ca2+ ATPase activity in diabetic rats; settings: diabetic rats fed 1% of diet, mean ± SEM
# Experimental: (§1) Group 1—healthy rats receiving normal diet (normal); Group 2—diabetic rats fed normal diet (diabetic); […] Group 4—diabetic rats fed diosgenin (as 1% of normal diet); Group 5—diabetic rats fed bitter yam (as 1% of diet); and Group 6 fed the bitter yam therapeutic product (BYTP—as 1% of the diet). The rats except the control group were made diabetic using standard procedures involving streptozotocin (60 mg/kg body weight in 0.05 M citrate buffer, pH 4.5) injection intraperitonally. The control group rats were injected with an equivalent amount of buffer (0.05 M citrate buffer, pH 4.5). […] Rats were housed in stainless steel cages in a room kept on a 12-hour light-dark cycle, and were allowed to have access to their respective diets and water freely. The cages were cleaned daily. Body weight change, faecal output and total food intake were recorded weekly. The rats were fed on their respective diets for 4 weeks and sacrificed by decapitation after an overnight fast. Blood was collected in oxalate/fluoride vacutainers. The intestine, kidney, liver and spleen were excised, weighed and frozen in liquid nitrogen and stored at −20° C. until required for analysis. A section of the jejunum was cut and stored in 10% buffered formalin. Na^+/K^+ and Ca^+ ATPase activities were measured by the amount of inorganic phosphate released following incubation with disodium ATP and cations for the appropriate ATPase (see Bonting et al., Sodium-potassium activated adenosinetriphosphatase and cation transport, in Membranes and Ion Transport I, Bittar (Ed.). Wiley-Interscience, N.Y., pp. 257-363 (1970); and Bonting et al., Archives of Biochemistry and Biophysics 101: 47-55 (1963)). The inorganic phosphate was determined by the method of Fiske and Subarow, Journal of Biological Chemistry 66: 375-400 (1925).
# glucose-6-phosphatase = test: Glucose-6-phosphatase activity in liver and kidneys of diabetic rats; settings: diabetic rats fed 1% of diet, mean ± SEM
# Text: (§2) Experimental design for the animal studies: adult Wistar rats […] were divided into six groups (8 rats per group, average body weight 249.0±0.3 g) as follows: Group 1—healthy rats receiving normal diet (normal); Group 2—diabetic rats fed normal diet (diabetic); Group 3—diabetic rats fed sapogenin extract (as 1% of the diet); Group 4—diabetic rats fed diosgenin (as 1% of normal diet); Group 5—diabetic rats fed bitter yam (as 1% of diet); and Group 6 fed the bitter yam therapeutic product (BYTP—as 1% of the diet).
# The rats except the control group were made diabetic using standard procedures involving streptozotocin (60 mg/kg body weight in 0.05 M citrate buffer, pH 4.5) injection intraperitonally. The control group rats were injected with an equivalent amount of buffer (0.05 M citrate buffer, pH 4.5). The normal rat diet (PMI Feeds Inc., Lab diet #5001) was a marketed laboratory rodent diet recommended for rats, mice and hamsters with the approximate chemical composition: protein 23%, fat 4.5%, fiber 6.0%, ash 8.0% and carbohydrate 58.5%. Rats were housed in stainless steel cages in a room kept on a 12-hour light-dark cycle, and were allowed to have access to their respective diets and water freely. The cages were cleaned daily. Body weight change, faecal output and total food intake were recorded weekly. […]
# diabetic rats = test: Lipid peroxidation (conjugated dienes, TBARS) in diabetic rats; settings: diabetic rats fed 1% of diet, 4 weeks, mean ± SEM
# Text: as §2
# (§3) The rats except the control group were made diabetic using standard procedures involving streptozotocin (60 mg/kg body weight in 0.05 M citrate buffer, pH 4.5) injection intraperitonally. The control group rats were injected with an equivalent amount of buffer (0.05 M citrate buffer, pH 4.5). The normal rat diet (PMI Feeds Inc., Lab diet #5001) was a marketed laboratory rodent diet recommended for rats, mice and hamsters with the approximate chemical composition: protein 23%, fat 4.5%, fiber 6.0%, ash 8.0% and carbohydrate 58.5%. Rats were housed in stainless steel cages in a room kept on a 12-hour light-dark cycle, and were allowed to have access to their respective diets and water freely. The cages were cleaned daily. Body weight change, faecal output and total food intake were recorded weekly. The rats were fed on their respective diets for 4 weeks and sacrificed by decapitation after an overnight fast. Blood was collected in oxalate/fluoride vacutainers. The intestine, kidney, liver and spleen were excised, weighed and frozen in liquid nitrogen and stored at −20° C. until required for analysis. A section of the jejunum was cut and stored in 10% buffered formalin.
# Lipid peroxidation assays were conducted using the procedure of Tappel and Zalkin, Arch Biochim Biophys, 80: 333-336 (1959). Concentration of conjugated dienes in the liver was determined using the method of Hu et al., J Nutr, 119: 1574-1582 (1989).
# maltase = test: Intestinal maltase activity in diabetic rats; settings: diabetic rats fed 1% of diet, mean ± SEM
# Text: as §2, §3
# Mg^2+ ATPase = test: Intestinal Mg2+ ATPase activity in diabetic rats; settings: diabetic rats fed 1% of diet, mean ± SEM
# alanine transaminase = test: Alanine transaminase activity of liver, kidney and spleen in diabetic rats; settings: diabetic rats fed 1% of diet, 4 weeks, mean ± SEM
# Text: as §2, §3
# acid phosphatase = test: Acid phosphatase activity of liver, kidney and spleen in diabetic rats; settings: diabetic rats fed 1% of diet, 4 weeks, mean ± SEM
# Text: as §2, §3
# aspartate transaminase = test: Aspartate transaminase activity of liver, kidney and spleen in diabetic rats; settings: diabetic rats fed 1% of diet, 4 weeks, mean ± SEM
# Text: as §2, §3
# Na^+/K^+ ATPase = test: Intestinal Na+/K+ ATPase activity in diabetic rats; settings: diabetic rats fed 1% of diet, mean ± SEM
# Experimental: as §1
smiles,measurement,setting,value
C[C@@H]1CC[C@@]2(OC1)O[C@H]1C[C@H]3[C@@H]4CC=C5C[C@@H](O)CC[C@]5(C)[C@H]4CC[C@]3(C)[C@H]1[C@@H]2C [diosgenin],Specific activity of Ca^2+ ATPase from rat intestinal sections,Ca^2+ ATPase; Distal,13.1 ± 0.3^b nmol Pi/min/mg protein
same,Specific activity of Ca^2+ ATPase from rat intestinal sections,Ca^2+ ATPase; Mid,17.1 ± 0.4^c nmol Pi/min/mg protein
same,Specific activity of Ca^2+ ATPase from rat intestinal sections,Ca^2+ ATPase; Proximal,34.9 ± 0.6^a nmol Pi/min/mg protein
same,"glucose-6-phosphatase activity, Kidney",glucose-6-phosphatase; kidney,11.0 ± 2.0^b μmole/min/mg protein × 10^−2
same,"glucose-6-phosphatase activity, Liver",glucose-6-phosphatase; liver,8.3 ± 1.0^a μmole/min/mg protein × 10^−2
same,Kidney TBARS,diabetic rats,61.7 ± 6.6^a nmol/g kidney
same,Liver TBARS,diabetic rats,18.1 ± 2.1^a nmol/g liver
same,Conjugated dienes,diabetic rats; liver,0.428 ± 0.082^a μmole/g liver
same,Specific activity of maltase from different sections of the rat intestine,maltase; Distal,14.0 ± 1.0.^A nmol maltase/min/mg protein
same,Specific activity of maltase from different sections of the rat intestine,maltase; Mid,17.1 ± 0.9^a nmol maltase/min/mg protein
same,Specific activity of maltase from different sections of the rat intestine,maltase; Upper,18.4 ± 1.2^a nmol maltase/min/mg protein
same,Specific activity of Mg^2+ ATPase from rat intestinal sections,Mg^2+ ATPase; Distal,16.4 ± 0.6^a nmol Pi/min/mg protein
same,Specific activity of Mg^2+ ATPase from rat intestinal sections,Mg^2+ ATPase; Mid,22.1 ± 0.4^b nmol Pi/min/mg protein
same,Specific activity of Mg^2+ ATPase from rat intestinal sections,Mg^2+ ATPase; Proximal,27.8 ± 0.5^a nmol Pi/min/mg protein
same,Alanine transaminase,alanine transaminase; kidney,5.4 ± 0.5^a mg pyr/min/mg protein × 10^−4
same,Alanine transaminase,alanine transaminase; liver,14.1 ± 2.80^a mg pyr/min/mg protein × 10^−4
same,Alanine transaminase,alanine transaminase; spleen,10.7 ± 1.8^ab mg pyr/min/mg protein × 10^−4
same,Acid phosphatase,acid phosphatase; kidney,27.3 ± 1.1^a mg PNP/min/mg protein × 10^−5
same,Acid phosphatase,acid phosphatase; liver,17.3 ± 0.9^a mg PNP/min/mg protein × 10^−5
same,Acid phosphatase,acid phosphatase; spleen,9.0 ± 0.8^b mg PNP/min/mg protein × 10^−5
same,Aspartate transaminase,aspartate transaminase; kidney,5.5 ± 0.6^bc mg pyr/min/mg protein × 10^−4
same,Aspartate transaminase,aspartate transaminase; liver,8.6 ± 0.7^ab mg pyr/min/mg protein × 10^−4
same,Aspartate transaminase,aspartate transaminase; spleen,7.1 ± 1.3^ab mg pyr/min/mg protein × 10^−4
same,Specific activity of Na^+/K^+ ATPase from rat intestinal sections,Na^+/K^+ ATPase; Distal,7.3 ± 0.1^c nmol Pi/min/mg protein
same,Specific activity of Na^+/K^+ ATPase from rat intestinal sections,Na^+/K^+ ATPase; Mid,9.5 ± 0.1^c nmol Pi/min/mg protein
same,Specific activity of Na^+/K^+ ATPase from rat intestinal sections,Na^+/K^+ ATPase; Proximal,12.8 ± 0.2^c nmol Pi/min/mg protein
